Experimental data taken from ChEMBL document CHEMBL1201862, “PubChem BioAssay data set” (2004).
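Following 48 hours of exposure in 96-well plates, responses at five concentrations were used to interpolate endpoints linearly. GI50 marks 50% less growth.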 Calls of active or inactive are those of the source. Cut-off read from the data, not from the text of the source: active = GI50 up to about 1.1 µM and inactive = higher. Residues, ends and D or L forms follow the SMILES beside them. Groups on a side chain read outwards from the residue. *: point of attachment. Cbz = O=C(OCc1ccccc1)*; Boc = CC(C)(C)OC(=O)*

Columns and labels:
Assay in all cases: inhibition of tumour cell growth, NCI panel, 48 h
Malme-3M = tested on: Malme-3M
NCI-H460 = tested on: NCI-H460
UACC-62 = tested on: UACC-62
MDA-MB-435 = tested on: MDA-MB-435
K562 = tested on: K562
SR = tested on: SR
NCI-H522 = tested on: NCI-H522
KM12 = tested on: KM12
PC-3 = tested on: PC-3
OVCAR-5 = tested on: OVCAR-5
COLO 205 = tested on: COLO 205
MCF7 = tested on: MCF7
MDA-N = tested on: MDA-N
CCRF-CEM = tested on: CCRF-CEM
TK-10 = tested on: TK-10
HCC 2998 = tested on: HCC 2998
MDA-MB-231 = tested on: MDA-MB-231
M14 = tested on: M14
SK-MEL-2 = tested on: SK-MEL-2
HL-60 = tested on: HL-60

Measured: GI50

O=c1c2c(-c3ccccc3)onc2n(-c2ccccc2)c(=O)n1-c1ccccc1
inactive: Malme-3M 17.5 µM | NCI-H460 17.9 µM | UACC-62 14.5 µM | MDA-MB-435 > 100 µM | K562 > 100 µM | SR > 100 µM | NCI-H522 15.7 µM | KM12 17.9 µM | PC-3 18.6 µM | OVCAR-5 16.4 µM | COLO 205 > 100 µM | MCF7 > 100 µM | MDA-N > 100 µM | CCRF-CEM > 100 µM | TK-10 14.5 µM | HCC 2998 18.2 µM | MDA-MB-231 > 100 µM | M14 17.1 µM | SK-MEL-2 11 µM

CO[C@@H]1O[C@H](C(=O)c2ccccc2)[C@H]2OC(C)(C)O[C@@H]12
inactive: NCI-H460 38.1 µM | UACC-62 > 100 µM | MDA-MB-435 85.3 µM | K562 > 100 µM | SR 57.8 µM | NCI-H522 > 100 µM | KM12 > 100 µM | PC-3 > 100 µM | OVCAR-5 > 100 µM | COLO 205 > 100 µM | HL-60 21.1 µM | MCF7 > 100 µM | MDA-N > 100 µM | CCRF-CEM 49.7 µM | TK-10 > 100 µM | HCC 2998 > 100 µM | MDA-MB-231 79.3 µM | M14 > 100 µM | SK-MEL-2 > 100 µM

Cc1ccc(NC(=O)CC(=O)N2N=C(N3CCCCC3)CC2c2ccccc2)cc1 (stereo unspecified)
inactive: Malme-3M > 100 µM | NCI-H460 > 100 µM | UACC-62 > 100 µM | MDA-MB-435 > 100 µM | SR > 100 µM | NCI-H522 > 100 µM | KM12 > 100 µM | PC-3 > 100 µM | OVCAR-5 > 100 µM | COLO 205 > 100 µM | HL-60 > 100 µM | MCF7 > 100 µM | MDA-N > 100 µM | CCRF-CEM > 100 µM | TK-10 > 100 µM | HCC 2998 > 100 µM | MDA-MB-231 > 100 µM | M14 > 100 µM | SK-MEL-2 > 100 µM

CC(C)(C)OC(=O)/C=C/[C@@H](CCC(=O)/C=C/[C@H](/C=C\CCCC(=O)O)NC1(c2ccccc2)c2ccccc2-c2ccccc21)O[Si](C)(C)C(C)(C)C
inactive: NCI-H460 17.6 µM | UACC-62 13.9 µM | MDA-MB-435 17.8 µM | K562 16 µM | SR 19.4 µM | NCI-H522 18.5 µM | KM12 18.1 µM | PC-3 13.5 µM | OVCAR-5 20.5 µM | COLO 205 21.5 µM | HL-60 24.8 µM | MCF7 15.9 µM | MDA-N 17.1 µM | CCRF-CEM 29.2 µM | TK-10 24.8 µM | HCC 2998 16.8 µM | MDA-MB-231 14.1 µM | M14 14 µM | SK-MEL-2 15.4 µM

COc1ccc(/C=C2\CN(C)CC3=C2OC(N)=C(C#N)C3c2ccc(OC)cc2)cc1 (stereo unspecified)
inactive: Malme-3M 14.3 µM | NCI-H460 24.9 µM | UACC-62 > 100 µM | MDA-MB-435 17.7 µM | K562 33.6 µM | SR 15.2 µM | NCI-H522 14.5 µM | KM12 > 56.5 µM | PC-3 > 25.8 µM | OVCAR-5 > 100 µM | COLO 205 > 52.1 µM | MCF7 19.5 µM | MDA-N 21.8 µM | CCRF-CEM 7.57 µM | TK-10 > 84.5 µM | HCC 2998 23.8 µM | MDA-MB-231 42.4 µM | M14 97.1 µM | SK-MEL-2 > 45.9 µM

O=c1[nH]c(Nc2cccc(C(F)(F)F)c2)nc2[nH]cnc12
inactive: Malme-3M > 100 µM | MDA-MB-435 > 100 µM | K562 > 100 µM | SR > 100 µM | NCI-H522 69.7 µM | KM12 > 100 µM | PC-3 75.2 µM | OVCAR-5 > 100 µM | COLO 205 73.3 µM | HL-60 > 100 µM | MCF7 > 100 µM | MDA-N 82.2 µM | CCRF-CEM > 100 µM | TK-10 > 100 µM | HCC 2998 > 100 µM | MDA-MB-231 > 100 µM | M14 > 100 µM | SK-MEL-2 88.3 µM

CC(C)CC(NC(=O)OCc1ccccc1)C(=O)NCCCCC(NC(=O)C(CCCCNC(=O)C(CC(C)C)NC(=O)OCc1ccccc1)NC(=O)C(CCCCNC(=O)C(CC(C)C)NC(=O)OCc1ccccc1)NC(=O)C(CCCCNC(=O)C(CC(C)C)NC(=O)OCc1ccccc1)NC(=O)OC(C)(C)C)C(=O)O (stereo unspecified) (Boc-K([Leu-Cbz])K([Leu-Cbz])K([Leu-Cbz])K([Leu-Cbz])-OH; configuration not given here)
inactive: Malme-3M > 25 µM | NCI-H460 > 25 µM | UACC-62 > 25 µM | MDA-MB-435 > 25 µM | K562 > 25 µM | SR > 25 µM | NCI-H522 > 25 µM | PC-3 > 25 µM | OVCAR-5 > 25 µM | HL-60 > 25 µM | MCF7 > 25 µM | MDA-N > 25 µM | CCRF-CEM > 25 µM | TK-10 > 25 µM | HCC 2998 > 25 µM | MDA-MB-231 > 25 µM | M14 > 25 µM | SK-MEL-2 > 25 µM
